These molecules were tested against T1, human CRTH2 (Homo sapiens, UniProt Q9Y5Y4) (assay: Human CRTH2 Receptor Binding Assay (whole cell, [3H]ramatroban competition)). Conditions: CHO-K1 cells stably expressing human CRTH2 and G-alpha16; 20 nM [3H]ramatroban; 1 hour, room temperature.
T1 construct: expressed in transfected cells
T1 sequence (Q9Y5Y4 1-395): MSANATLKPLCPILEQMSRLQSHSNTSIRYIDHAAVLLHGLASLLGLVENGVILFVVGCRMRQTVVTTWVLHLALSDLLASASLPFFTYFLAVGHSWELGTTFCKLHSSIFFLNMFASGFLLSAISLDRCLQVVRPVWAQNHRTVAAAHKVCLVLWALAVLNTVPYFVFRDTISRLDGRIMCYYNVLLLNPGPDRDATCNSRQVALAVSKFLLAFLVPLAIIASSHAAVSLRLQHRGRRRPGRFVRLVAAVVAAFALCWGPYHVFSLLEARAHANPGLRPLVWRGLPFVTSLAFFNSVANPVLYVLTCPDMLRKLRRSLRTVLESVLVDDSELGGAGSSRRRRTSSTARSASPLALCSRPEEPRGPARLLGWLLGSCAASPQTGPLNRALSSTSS
How it was run: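 Whole CHO-K1 cells stably expressing human CRTH2 and G-alpha16 were incubated with 20 nM [3H]ramatroban and compound for 1 h at room temperature in PBS with 10 mM MgCl2 and 0.06% BSA, then filtered and counted. Non-specific binding was defined with 10 μM 15(R)-15-methyl PGD2, and IC50 was fitted by 4-parameter logistic from 7 concentrations.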

Structure (SMILES) | IC50 [µM]
CC(C)N(C)c1cc(C(F)(F)F)cc(S(=O)(=O)N(C)[C@@H]2CCCc3c2cnn3CC(=O)O)c1 [Example 24-2a, ((R)-4-{[3-(Isopropyl-methyl-amino)-5-trifluoromethyl-benzenesulfonyl]-methyl-amino}-4,5,6,7-tetrahydro-indazol-1-yl)-acetic acid] | 0.0457
CN(C)c1cc(C(F)(F)F)cc(S(=O)(=O)N(C)[C@@H]2CCCc3c2cnn3CC(=O)O)c1 [Example 24-3a, {(R)-4-[(3-Dimethylamino-5-trifluoromethyl-benzenesulfonyl)-methyl-amino]-4,5,6,7-tetrahydro-indazol-1-yl}-acetic acid] | 0.0622
CCN(CC)c1cc(C(F)(F)F)cc(S(=O)(=O)N(C)[C@@H]2CCCc3c2cnn3CC(=O)O)c1 [Example 24-4a, {(R)-4-[(3-Diethylamino-5-trifluoromethyl-benzenesulfonyl)-methyl-amino]-4,5,6,7-tetrahydro-indazol-1-yl}-acetic acid] | 0.146
O=C(O)Cn1ncc2c1CCCC2NS(=O)(=O)c1cc(C2CC2)cc(C(F)(F)F)c1 (stereo not shown) [Example 25-1a, [4-(3-Cyclopropyl-5-trifluoromethyl-benzenesulfonylamino)-4,5,6,7-tetrahydro-indazol-1-yl]-acetic acid] | 0.022
Cc1cc(C(F)(F)F)cc(S(=O)(=O)NC2CCCc3c2cnn3CC(=O)O)c1 (stereo not shown) [Example 25-2a, [4-(3-Methyl-5-trifluoromethyl-benzenesulfonylamino)-4,5,6,7-tetrahydro-indazol-1-yl]-acetic acid] | 0.142
C=C(C)c1cc(C(F)(F)F)cc(S(=O)(=O)NC2CCCc3c2cnn3CC(=O)O)c1 (stereo not shown) [Example 25-3a, [4-(3-Isopropenyl-5-trifluoromethyl-benzenesulfonylamino)-4,5,6,7-tetrahydro-indazol-1-yl]-acetic acid] | 0.0404
CN([C@@H]1CCCc2c1cnn2CC(=O)O)S(=O)(=O)c1cc(C2CC2)cc(C(F)(F)F)c1 [Example 26-1a, {(R)-4-[(3-Cyclopropyl-5-trifluoromethyl-benzenesulfonyl)-methyl-amino]-4,5,6,7-tetrahydro-indazol-1-yl}-acetic acid] | 0.0163

Source: US8124641B2, “Aminotetrahydroindazoloacetic acids” (Hoffmann-La Roche Inc., priority 2008, dated 2012)
